The source of these data is patent US9315545B2, “Hepcidin mimetic peptides and uses thereof” (MERGANSER BIOTECH, INC., priority 2014, dated 2016).

The structures appear in SMILES notation. Converted amounts (≈) assume the structure as drawn. Some results are limits rather than exact numbers.

This data set is described as follows: physchem. It is filed as physicochemical. The method, then: Different solvent compositions with different properties that are commonly used as a basis for pharmaceutical compositions were added to known quantities of the indicated compound and mixed. If a clear solution was not obtained, additional solvent was added and the solution mixed. […] For example “50-100” would indicate that the compound was not soluble at 100 mg/mL but upon additional solvent to have a final concentration of 50 mg/mL, the compound was soluble.

The mark [1] stands for this setting: Solubility (mg/mL) at Ambient Temperature, 30% PEG 400.
Where [2] appears, read: Solubility (mg/mL) at Ambient Temperature, 50% EtOH/water.
[3] abbreviates: Solubility (mg/mL) at Ambient Temperature, Water.
Where [4] appears, read: pH 2.3, Solubility (mg/mL) at Ambient Temperature, 10% Tween 80 pH 2.3-2.8.
[5] abbreviates: pH 2.7, Solubility (mg/mL) at Ambient Temperature, 50% propylene glycol, pH 2.7.
[6] abbreviates: pH 4.5, Solubility (mg/mL) at Ambient Temperature, 10% Tween 80 pH 4.5-5.0.
[7] abbreviates: pH 5.5, Solubility (mg/mL) at Ambient Temperature, 10% Tween 80 pH 5.5-6.0.

For orientation: solubility means the dissolved amount per volume that the medium holds. Read a high solubility as much dissolved substance.

In the case of `CCCCCCCCCCCCCCCCNC(=O)CN(CC(N)=O)C(=O)CCCCCNC(=O)[C@H](Cc1c[nH]c2ccccc12)NC(=O)[C@H](CCCNC(=N)N)NC(=O)[C@H](CSSC)NC(=O)[C@H](CCCNC(=N)N)NC(=O)[C@@H]1CCCN(C(=O)[C@@H](NC(=O)[C@H](Cc2c[nH]cn2)NC(=O)[C@@H](NC(=O)CNCC(=O)O)[C@@H](C)O)C(c2ccccc2)c2ccccc2)C1` [Compound 7], the solubility runs as follows: under setting [1], more than 35 mg/mL; under setting [2], more than 100 mg/mL; under setting [3], 50 to 100 mg/mL (≈ 27.7 to 55.4 mM); under setting [4], more than 100 mg/mL; under setting [5], more than 100 mg/mL; under setting [6], more than 50 mg/mL. This compound yielded a solubility under setting [7] of 50 to 100 mg/mL (≈ 27.7 to 55.4 mM).
As to `CCCCCCCCCCCCCCCCNC(=O)CN(CC(N)=O)C(=O)CCCCCNC(=O)[C@H](Cc1c[nH]c2ccccc12)NC(=O)[C@H](CCCNC(=N)N)NC(=O)[C@H](CSSC)NC(=O)[C@H](CCCNC(=N)N)NC(=O)C1CCN(C(=O)[C@@H](NC(=O)[C@H](Cc2c[nH]cn2)NC(=O)[C@@H](NC(=O)CNCC(=O)O)[C@@H](C)O)C(c2ccccc2)c2ccccc2)CC1` [Compound 8], the solubility is 25 to 35 mg/mL (≈ 13.9 to 19.4 mM) under setting [1]; more than 100 mg/mL under setting [2]; 50 to 100 mg/mL (≈ 27.7 to 55.4 mM) under setting [3]; 40 to 70 mg/mL (≈ 22.2 to 38.8 mM) under setting [4]; 30 to 50 mg/mL (≈ 16.6 to 27.7 mM) under setting [5]; more than 50 mg/mL under setting [6]. The same compound yielded a solubility under setting [7] of 50 to 100 mg/mL (≈ 27.7 to 55.4 mM).
Regarding `CCCCCCCCCCCCCCCCNC(=O)CN(CC(N)=O)C(=O)CCCCCNC(=O)[C@H](Cc1c[nH]c2ccccc12)NC(=O)[C@H](CCCNC(=N)N)NC(=O)[C@H](CSSC)NC(=O)[C@H](CCCNC(=N)N)NC(=O)C[C@@H]1CCCN1C(=O)[C@@H](NC(=O)[C@H](Cc1c[nH]cn1)NC(=O)[C@@H](NC(=O)CN(CC(=O)O)C(=O)CNC(C)=O)[C@@H](C)O)C(c1ccccc1)c1ccccc1` [Compound 9], the solubility is 20 to 35 mg/mL (≈ 10.5 to 18.4 mM) under setting [1]; more than 100 mg/mL under setting [2]; 50 to 100 mg/mL (≈ 26.3 to 52.5 mM) under setting [3]; 30 to 50 mg/mL (≈ 15.8 to 26.3 mM) under setting [4]; 30 to 50 mg/mL (≈ 15.8 to 26.3 mM) under setting [5]; 25 to 50 mg/mL (≈ 13.1 to 26.3 mM) under setting [6]. The solubility under setting [7] is 25 to 35 mg/mL (≈ 13.1 to 18.4 mM).
For the compound `CCCCCCCCCCCCCCCCNC(=O)CN(CC(N)=O)C(=O)CCCCCNC(=O)[C@H](Cc1c[nH]c2ccccc12)NC(=O)[C@H](CCCNC(=N)N)NC(=O)[C@H](CSSC)NC(=O)[C@H](CCCNC(=N)N)NC(=O)CCNC(=O)[C@@H](NC(=O)[C@H](Cc1c[nH]cn1)NC(=O)[C@@H](NC(=O)CNCC(=O)O)[C@@H](C)O)C(c1ccccc1)c1ccccc1` [Compound 10], the “solubility characteristics compared to the other compounds (in words)” value was “does not improve solubility characteristics”. The compound further registered a solubility under setting [1] of less than 10 mg/mL. For the same compound, the solubility under setting [2] was less than 10 mg/mL. Under setting [3], this compound gave a solubility of less than 25 mg/mL. This compound also showed a solubility under setting [4] of 15 to 20 mg/mL (≈ 8.5 to 11.3 mM). This compound showed a solubility under setting [5] of less than 20 mg/mL. For the same compound, under setting [6], the solubility was less than 10 mg/mL. Moreover, the solubility under setting [7] is less than 10 mg/mL.
